Measurements published in article PMC2658647 (Annals of neurology, 2009).

Assays:
iNOS = iNOS (Mus musculus, UniProt P29477); experiment: NOS inhibition, hemoglobin capture assay; type: biochemical; settings: read-out: Ki iNOS; apparent Ki; recombinant enzyme; 10 µM L-arginine
blood pressure = settings: cited from earlier work

Row | Compound | Ki (iNOS) [µM] | effect on blood pressure (blood pressure)
1 | N=C(NCCC[C@H](N)C(=O)O)N[N+](=O)[O-] [L-NNA, L-N^ω-Nitroarginine] | 4.55 | –
2 | COC(=O)[C@@H](N)CCCNC(=N)N[N+](=O)[O-] [L-N^ω-nitroarginine methyl ester] | – | sharp increases in blood pressure
